Test results reported in US20080234132A1, “Microcin B17 Analogs And Methods For Their Preparation And Use” (priority 2004, published 2008).
In brackets after ≈: the same amount, converted by molar mass. *1 amine or outer side, *2 acyl side, *3 side chain or, on linkers, in order; H or OH if unused. Where a SMILES comes first, the peptide text is derived from it. [ ]: non-standard residue; d: D form. X2 = O=C(c1c[nH]c(CN[*:1])c1)[*:2]

Columns and labels:
[1] = biological target: T1, E. coli DNA gyrase A2B2, MG1655 wild type (Escherichia coli, UniProt P0AES4+P0AES6); conditions: Flatman et al., 2004; cited from earlier work
[2] = biological target: T2, E. coli DNA gyrase A2B2, wild type (Escherichia coli, UniProt P0AES4+P0AES6); conditions: Flatman et al., 2004; cited from earlier work
[3] = biological target: T1, E. coli DNA gyrase A2B2, MG1655 wild type; conditions: Flatman et al., 2004; cited from earlier work; remark: listed apart in the source
[4] = biological target: T2, E. coli DNA gyrase A2B2, wild type; conditions: Flatman et al., 2004; cited from earlier work; remark: listed apart in the source
[5] = system: Arabidopsis thaliana ecotype Columbia seeds; assay: Seed germination, Arabidopsis thaliana; type: in vivo; conditions: three week period
From the text: Germination begins when the dormant dry seed begins to take up water (imbibition from the surface sterilization process). Primary roots emerge while the seed is in the culture media. Subsequently the hypocotyls emerge and elongate to pull the cotyledons above the culture media surface. After straightening up, the cotyledons arrange into an horizontal position, as shown in the Figure, and, then spread apart in order to expose the first true leaves and the apical meristem (growing tip).
(§1) The microcin derivatives were tested for efficacy in planta against Arabidopsis thaliana ecotype Columbia according to known methods (see Wall et al., 2004). Seeds were germinated on sterile media containing the appropriate peptide and the effects were observed over a three week period. […] In […] seeds, such as A. thaliana, during imbibition the quiescent seed rapidly resumes metabolic and respiratory activity. One of the first steps, as part of this process, is the initiation of mitochondrial DNA synthesis which requires DNA gyrase and which may explain the exquisite sensitivity of the germinating seeds to Peptides 1 and 2.

[6] = system: Arabidopsis thaliana ecotype Columbia plants; assay: Effects on A. thaliana seedlings and plants; type: in vivo
Procedure: as §1
(§2) The leaf tissue initially turned yellow, followed by rapid necrosis of the tissue (see FIG. 32). […] The high hydrophility of Peptide 1 may preferentially allow the compound to readily diffuse through the leaf cuticle and epidermis to the mesophyll and phloem below.
(§3) The heterocyclic compounds were also spotted onto the leaves of 4 week old, tissue culture grown Arabidopsis thaliana ecotype Columbia plants (see FIG. 34, panels A-1). […] The browning and necrosis diffused through the full thickness of the leaf over the next 60 minutes (see FIG. 34, panel F) and spread towards the meristem (see FIG. 34, panels E, F, H). Complete necrosis of the meristem and newly emerged leaves, where organellar replication takes place, was complete within 24 hours (see FIG. 34, panel F).

[7] = system: Arabidopsis thaliana ecotype Columbia plants; assay: Effects on whole plants/seedlings, Arabidopsis thaliana; type: in vivo
From the text: as §2, §3

[8] = Solubility; conditions: water
[9] = system: A. thaliana ecotype Columbia seeds; assay: Seed germination of A. thaliana; type: in vivo, Arabidopsis thaliana
[10] = biological target: DNA gyrase (MG 1655 A2B2) (Escherichia coli, UniProt P0AES4+P0AES6); assay: biochemical; set-up: species or system E. coli
Procedure: GyrA and GyrB were added to a solution containing 35 mM Tris.HCl (pH, 7.5), 24 mM KCl, 4 mM MgCl2, 1.8 mM spermidine, 6.5% glycerol, 0.36 mg/mL BSA, 9 μg/mL tRNA, 5 mM DTT, 2 mM ATP and 24 nM relaxed pBR322 DNA. […] The reactions were incubated at 25° C., and at each time point 30-μl aliquots were quenched with 1 μL of 10% SDS. An equal volume of chloroform/isoamyl alcohol (24:1) and a half volume of loading buffer STEB (40% sucrose/100 mM Tris.HCl, pH 7.5/100 mM EDTA/2 mg/ml bromophenol blue) were added, and the mixtures then were vortexed and centrifuged for 1 min at 13,000 rpm. The aqueous phase was loaded onto 1% agarose, TAE (40 mM Tris-acetate, 1 mM EDTA) gels and were run at either 30 V overnight in TAE (in the cold room) or 70 V for 2.5 hours. The gels were stained for about 20 min in TAE containing 1 μg/ml ethidium bromide followed by destaining in multiple washes of TAE.

[11] = biological target: DNA gyrase A2B2 (Escherichia coli, UniProt P0AES4+P0AES6); assay: biochemical; type: biochemical, E. coli
Procedure: Relaxation assays were performed in a manner analogous to that described by Pierrat et al., 2005. Briefly, relaxation assays were performed as for the supercoiling assay but with some modifications: ATP and spermidine were omitted. Gyr A and Gyr B were added to a solutions containing 35 mM of Tris.HCl (pH=7.5), 24 mM of KCl, 4 mM of MgCl2, 1.8 mg/mL of spermidine, 6.5% of glycerol, 0.36 mg/mL of BSA, 9 μg/mL of tRNA, 5 mM of DTT, 2 mM of ATP and 24 nM of relaxed pBR322 DNA. […] The amount of DMSO was kept constant at 3.33%. The reactions were incubated at 25° C., and at each time point 30 μL aliquots were quenched with the addition of an equal volume of chloroform/isoamyl alcohol (24:1) and a half volume of loading buffer STEB (40% sucrose/100 mM Tris HCl, pH 7.5/100 mM EDTA/2 mg/mL bromophenol blue). The mixtures then were vortexed and centrifuged for 1 minute at 13,000 rpm. The aqueous phase was loaded onto 1% agarose, TAE (40 mM Tris-acetate, 1 mM EDTA) gels and were run at either 30 V overnight in TAE (in the cold room) or 70 V for 2.5 hours in TAE. The gels were stained for about 20 minutes in TAE containing 1 μg/mL ethidium bromide followed by destaining in multiple washes of TAE. The data were analysed using Syngel software.

[12] = system: E. coli MG1655; assay: Halo assay, wild-type E. coli MG1655; type: cell-based
Procedure: Lawns of cells were prepared by spreading, on top of a LB+Agar plate, 3 ml of melted LSS medium (half-agar strength: 0.3 g Agar/50 ml LB) inoculated with 100 μl of a 10 ml LB overnight culture of E. coli cells grown at 37° C. […] The plates were incubated at 37° C. overnight and growth inhibition was qualitatively analysed by measuring the diameter of each halo.

[13] = biological target: DNA gyrase (Escherichia coli, UniProt P0AES4+P0AES6); type: biochemical, E. coli
Procedure: GyrA and GyrB were added to solutions containing 35 mM Tris.HCl (pH, 7.5), 24 mM KCl, 4 mM MgCl2, 1.8 mM spermidine, 6.5% glycerol, 0.36 mg/mL BSA, 9 μg/mL tRNA, 5 mM DTT, 2 mM ATP and 10 nM relaxed pBR322 DNA. […] The reactions were incubated at 25° C., and at each time point 30-μl aliquots were quenched with 1 μL of 10% SDS and 2 μL of 2 mg/ml proteinase K. Quenched aliquots were kept on ice until the experiment was completed, at which time they were incubated at 37° C. for half an hour. An equal volume of chloroform/isoamyl alcohol (24:1) and a half volume of loading buffer STEB (40% sucrose/100 mM Tris HCl, pH 7.5/1 mM EDTA/2 mg/ml bromophenol blue) were added, and the mixtures then were vortexed and centrifuged for 1 min at 13,000 rpm. The aqueous phase was loaded onto 1% agarose, TAE (40 mM Tris-acetate, 1 mM EDTA) gels that contained 1 μg/ml ethidium bromide and were run at either 30 V overnight in TAE containing 1 μg/ml ethidium bromide (in the cold room) or 70 V for 2.5 hours in TAE containing 1 μg/ml ethidium bromide.

[14] = biological target: T1, E. coli DNA gyrase A2B2, MG1655 wild type; type: biochemical
From the text: ATP hydrolysis by DNA gyrase was linked to the oxidation of NADH using a pyruvate Kinase (PK)/lactate dehydrogenase (LDH) coupled enzyme assay and measured at 340 nm on a Spectramax Plus Microplate. […] DMSO was kept constant at 2%.
Experimental data were fitted and treated with the following equation:
where L represents the inhibitor concentration, v represents the rate of the ATPase reaction, and v0 represents the rate in absence of inhibitor. The IC50 is deduced from the equation 2:

[15] = biological target: E. coli DNA gyrase A2B2, W751R mutant (Trp751→Arg in DNA gyrase B subunit) (Escherichia coli, UniProt P0AES4+P0AES6, W751R); conditions: FIG. 18
Procedure: ATP hydrolysis by DNA gyrase was linked to the oxidation of NADH using a pyruvate Kinase (PK)/lactate dehydrogenase (LDH) coupled enzyme assay and measured at 340 nm on a Spectramax Plus Microplate. The ATPase assay was similar to that described previously by Pierrat & Maxwell, 2005. Each 100 μL reaction contained 50 mM Tris.HCl (pH 7.5), 24 mM KCl, 5 mM MgCl2, 6.5% (w/w) glycerol, 4 mM dithiotreitol, 0.4 mM NADH, 0.8 mM phosphorenol-pyruvate, 1% (w/w) PK/LDH mixture (Sigma), 51 nM-153 nM gyrase enzyme and the drug tested at varying concentrations. DMSO was kept constant at 2%. The reactions were measured in the presence or absence of linear DNA pBR322 at fixed concentration of 8.4 nM. Reactions were initiated by the addition of 10 mM Mg.ATP and measured at 25° C. over 1.5 hours.
DNA-dependent ATPase reactions were tested with the wild type enzyme A2B2 and the W751R mutant enzyme. In these DNA-dependent ATPase assays, the concentration of wild type A2B2 is 51 nM, the concentration of W751R mutant enzyme is 106 nM.

[16] = system: HT-29 cells; assay: MTT cell viability assay, HT-29; type: cell-based, human; conditions: Homo sapiens, HT-29; 24 hours, MTT; read-out: In vivo HT29 Cells, approximate IC50
Procedure: (§4) Human cell cultures were initiated from frozen cell stocks (the gift of Dr J. Gavrilovic, UEA). […] Both human cell lines form adherent cultures and were maintained at 37° C. in T25 culture vessels as 10 mL cultures in CO2 Independent Media containing 10% foetal bovine serum (EU approved), 4 mM L-glutamine, penicillin/streptomycin (Invitrogen). […] Media was renewed every three days.
(§5) After incubation with MTT and solubilization, the resulting coloured solution is quantified using a scanning spectrophotometer. […] Cell viability was then determined by addition of MTT reagent (20 μL) in each well, as per manufacturer's instructions and incubated for a further 4 hours. Solubilization solution (100 μL) was added per well and the plates incubated overnight at 37° C. The plates were read in a spectrophotometer (scanning from 500-650 nm, signal peak at 570 nm).

[17] = biological target: Human topoisomerase IIα (Homo sapiens, UniProt P11388); assay: Human topoisomerase IIα-mediated relaxation assay; type: biochemical; set-up: purchased TopoGEN Inc; conditions: topoisomerase assays (FIG. 27)
Sequence of Human topoisomerase IIα (P11388 whole entry): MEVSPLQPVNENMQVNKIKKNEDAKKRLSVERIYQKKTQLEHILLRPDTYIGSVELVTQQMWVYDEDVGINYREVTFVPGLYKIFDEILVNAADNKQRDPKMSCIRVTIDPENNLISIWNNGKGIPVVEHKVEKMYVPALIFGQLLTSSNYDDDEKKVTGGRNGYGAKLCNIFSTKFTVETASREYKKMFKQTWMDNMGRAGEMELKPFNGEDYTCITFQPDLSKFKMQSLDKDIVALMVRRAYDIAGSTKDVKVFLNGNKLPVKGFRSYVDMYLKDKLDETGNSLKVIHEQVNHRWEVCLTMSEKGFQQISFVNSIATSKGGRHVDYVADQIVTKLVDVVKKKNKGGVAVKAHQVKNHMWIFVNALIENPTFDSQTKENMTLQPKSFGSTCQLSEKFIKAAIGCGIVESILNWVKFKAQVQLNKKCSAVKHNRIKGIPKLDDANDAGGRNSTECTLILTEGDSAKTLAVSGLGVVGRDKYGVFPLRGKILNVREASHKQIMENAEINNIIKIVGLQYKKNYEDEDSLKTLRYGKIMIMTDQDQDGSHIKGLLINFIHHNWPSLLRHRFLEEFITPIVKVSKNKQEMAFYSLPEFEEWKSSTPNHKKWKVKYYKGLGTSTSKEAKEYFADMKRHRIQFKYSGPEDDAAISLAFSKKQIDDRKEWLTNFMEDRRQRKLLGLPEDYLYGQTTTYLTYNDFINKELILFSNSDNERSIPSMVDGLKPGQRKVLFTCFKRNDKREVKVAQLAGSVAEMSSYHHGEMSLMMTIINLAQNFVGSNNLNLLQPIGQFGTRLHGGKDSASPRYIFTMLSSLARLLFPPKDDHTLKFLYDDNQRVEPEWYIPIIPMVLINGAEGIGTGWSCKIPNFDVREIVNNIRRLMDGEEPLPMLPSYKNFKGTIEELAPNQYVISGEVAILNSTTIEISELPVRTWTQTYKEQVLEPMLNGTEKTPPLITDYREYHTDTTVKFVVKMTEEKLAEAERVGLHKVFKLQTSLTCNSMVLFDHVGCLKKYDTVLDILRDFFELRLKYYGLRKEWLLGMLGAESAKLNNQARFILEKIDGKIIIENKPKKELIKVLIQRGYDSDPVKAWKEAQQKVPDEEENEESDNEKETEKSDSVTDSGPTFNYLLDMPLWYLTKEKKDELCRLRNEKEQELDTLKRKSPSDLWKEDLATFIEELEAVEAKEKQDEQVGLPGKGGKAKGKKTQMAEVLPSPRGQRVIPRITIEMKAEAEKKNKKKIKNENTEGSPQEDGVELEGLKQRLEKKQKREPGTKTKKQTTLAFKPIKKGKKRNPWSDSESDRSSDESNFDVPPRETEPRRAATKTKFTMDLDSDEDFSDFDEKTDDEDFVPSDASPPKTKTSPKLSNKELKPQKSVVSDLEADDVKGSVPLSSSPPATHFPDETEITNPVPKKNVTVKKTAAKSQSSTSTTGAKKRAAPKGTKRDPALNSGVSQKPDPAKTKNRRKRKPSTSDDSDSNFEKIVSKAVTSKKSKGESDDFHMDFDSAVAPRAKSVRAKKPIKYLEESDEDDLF
Procedure: Human Topoisomerase IIα-mediated relaxation assays and decatenation assays were performed as per the manufacturer's instructions in a total of 20 μL. Relaxation assays contained Topoisomerase IIα (4.3 nM), 50 mM Tris.HCl pH 8,120 mM KCl, 10 mM MgCl2, 0.5 mM DTT, 0.5 mM ATP, 4.6 nM of supercoiled pBR322 DNA, and inhibitor where appropriate. Decatenation assays substituted the supercoiled DNA with 200 ng catenated kinetoplast DNA.
All in vitro reactions were incubated at 37° C. for 30 minutes. The DMSO concentration in each reaction was kept constant at 3.33%. Reactions were quenched with the addition of an equal volume of phenol/chloroform/isoamyl alcohol (25:24:1) and one tenth volume of loading buffer containing 40% sucrose, 100 mM Tris.HCl pH 7.5, 100 mM EDTA, 2 mg/mL bromophenol blue. The proteins were precipitated by vortexing, followed by centrifugation for 5 minutes at 16 000 g. The aqueous phase was loaded onto 1% agarose gels in Tris-acetate and were electrophoresed at 60 V for three hours in Tris-acetate buffer. The gels were stained in 1 μg/mL ethidium bromide. The gels were visualised using UV light and were documented and analysed using Syngene software.

[18] = system: HeLa cells; assay: MTT cell viability assay, HeLa; type: cell-based, human; conditions: Homo sapiens, HeLa; 24 hours, MTT; read-out: In vivo HeLa Cells, approximate IC50
Procedure: as §4, §5

CC(=O)O[C@@H]1[C@@H](C)O[C@@H](c2ccc3c(c2O)[C@@H](O)[C@]24O[C@@]2(C3=O)[C@@]2(O)C(=O)C=C(C)C[C@@]2(O)C[C@@H]4O)C[C@H]1OC(=O)/C=C/C=C/C=C/C=C/C(=O)Nc1c(O)c2ccc(O)c(Cl)c2oc1=O [simocyclinone D8]
Inhibition of supercoiling reaction [1]: inhibits the supercoiling and relaxation reactions
Cleavage complex formation / quinolone cleavage [2]: does not stimulate the gyrase-dependent cleavage complex formation but antagonizes quinolone cleavage
Inhibition of ATPase reaction [3]: not the ATPase reaction
Inhibition of relaxation reaction [4]: inhibits the supercoiling and relaxation reactions

C[C@H](NC(=O)CNC(=O)CNC(=O)c1c[nH]c(CNC(=O)[C@H](C)NC(=O)CNC(=O)[C@@H](N)CCC(N)=O)c1)C(=O)O [Peptide 2] (H-QGA[X2]GGA-OH)
Inhibition of seed germination [5]: able to inhibit germination of the seeds
effect on 4-week old plants transferred to media containing the compound ([6]; 100 μM Peptide 1, 200 μM Peptide 2): induced tumourous, undifferentiated cell growth
effect on 6-week old seedlings ([6]; in vivo): induces tumour-like growth
Effect on 4-week old plants ([7]; 200 μM): induced tumourous, undifferentiated cell growth in the meristematic region and petioles
effect on 6-week old seedlings ([7]; observed at 150 μM (FIG. 26)): induces tumour-like growth near the apical meristem zone
solubility [8]: 1000 µM (≈ 582 µg/mL)
effect on seed germination ([9]; 100 μM): only a bleaching effect
effect on seed germination ([9]; 150 μM): seed germination occurred but the growth is slower compared with the untreated seeds
effects on 6-week old seedlings and germinating seeds ([9]; 200 μM): the same as the effects observed for 100 μM Peptide 1
activity against seed germination ([9]; concentrations tested): able to inhibit germination
potency relative to Peptide 1 in plant assays ([9]; in vivo): half the potency of Peptide 1
supercoiling activity relative to Peptide 1 ([10]; FIG. 13): about half as active as Peptide 1
IC50 ([10]; Supercoiling (IC50 μM) MG 1655 A2B2, Table 4): > 100 µM
IC50 [11]: > 100 µM
concentration at which the relaxation reaction is inhibited ([11]; A2B2 70 nM, MccB17 tested at 25 μM): 200 µM
haloassay activity relative to Peptide 1 [12]: twice less active than Peptide 1
stabilisation of the cleaved DNA-enzyme (cleavage) complex ([13]; Peptide 1 at 100 μM, [A2B2]=30 nM, up to 1 h): Neither Peptide 1 nor Peptide 2 stabilise
Cleavage (IC50 μM) ([13]; Table 4): inactive

O=C(O)c1cn(C2CC2)c2cc(N3CCNCC3)c(F)cc2c1=O [Ciprofloxacin]
Inhibition of DNA-dependent ATPase [14]: slow down this ATPase hydrolysis rate of both wild type and mutant enzyme
DNA-dependent ATPase, W751R mutant (novobiocin, ciprofloxacin) [15]: slow down this ATPase hydrolysis rate of both wild type and mutant enzyme

NCc1nc(C(=O)O)cs1 [deBoc-thiazole]
IC50 [16]: ~15 µM
IC50 of deBoc-thiazole compared with thiazole compound [17]: no difference to the calculated IC50 values
IC50 [18]: ~75 µM
